Counter-ions that a name gives are not always drawn.
biological target: human PHD2184-418 (Homo sapiens (Human), UniProt Q9GZT9); assay: PHD2 inhibitory test (fluorescence polarization, binding between PHD2 and HIF-1α); details: human PHD2184-418, FITC-labeled HIF-1α556-574, 2 μM 2-oxoglutarate, 37° C. 60 minutes
Procedure: Test Example 1 PHD2 Inhibitory Test
(1) Expression and Preparation of Human PHD2184-418
Human PHD2184-418 containing amino acid residues 184 to 418 of the protein represented by CAC42509 (GenBank accession ID) was expressed and prepared by the following method.
An expression construct of human PHD2184-418 containing N-terminal histidine tag was introduced into pET-30a (+) vector, and the sequence was confirmed. This vector was introduced into BL21 (DE3) strain and cultured at 37° C. in LB medium containing antibiotics. After culturing, a cell lysis solution was added to the cells, and then the cells were disrupted by sonication. The disrupted suspension was centrifuged and the supernatant was purified by Ni column to give human PHD2184-418.
Human HIF-1α556-574 (FITC-labeled HIF-1α556-574), containing N-terminal FITC-Ahx, containing amino acid residues 556 to 574 (partial peptide) of HIF-1α was used as a substrate. Using FITC-labeled HIF-1α556-574, the competitive inhibition between 2-oxoglutarate and test compounds (PHD inhibitor) was evaluated based on the change in fluorescence polarization by the following method.
An enzyme (human PHD2184-418) and the substrate were diluted with an assay buffer (pH 7.4) containing 10 mM HEPES, 150 mM NaCl, 10 μM MnCl2-4H2O, 2 μM 2-oxoglutarate and 0.05% Tween-20. Test compounds were diluted with DMSO. Test compounds and human PHD2184-418 was added to the 384-well plate (Corning, black, opaque bottom) in advance. The reaction was started by the addition of FITC-labeled HIF-1α556-574. After incubating at 37° C. for 60 minutes, fluorescence polarization (excitation wavelength: 470 nm, fluorescence wavelength: 530 nm) was measured by PHERAstar FSX (BMG Labtech). Fluorescence polarization of each well was measured, and human PHD2 binding inhibitory activity of test compounds was calculated based on the value of test compound-free group.

human PHD2184-418, sequence (Q9GZT9 184-418): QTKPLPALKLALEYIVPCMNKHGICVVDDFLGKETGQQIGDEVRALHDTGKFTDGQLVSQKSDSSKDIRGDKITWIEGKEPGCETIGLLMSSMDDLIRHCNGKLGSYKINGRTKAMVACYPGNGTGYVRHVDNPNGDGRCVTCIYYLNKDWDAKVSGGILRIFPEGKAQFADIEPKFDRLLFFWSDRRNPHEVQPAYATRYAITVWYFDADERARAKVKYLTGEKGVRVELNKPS

SMILES | IC50
Cn1ccnc1CN1CC[C@H](n2c(=O)n(-c3ccc(-c4ccccc4)cc3)c3cccnc32)C1 [Example 2, (S)-1-([1,1′-biphenyl]-4-yl)-3-(1-((1-methyl-1H-imidazol-2-yl)methyl)pyrrolidin-3-yl)-1,3-dihydro-2H-imidazo[4,5-b]pyridin-2-one] | 0.79 µM
Cn1ccnc1CN1CC[C@@H](n2c(=O)n(-c3ccc(-c4ccccc4)cc3)c3cccnc32)C1 [Example 3, (R)-1-([1,1′-Biphenyl]-4-yl)-3-(1-((1-methyl-1H-imidazol-2-yl)methyl)pyrrolidin-3-yl)-1,3-dihydro-2H-imidazo[4,5-b]pyridin-2-one] | 3.9 µM
O=c1n(-c2ccc(-c3ccccc3)cc2)c2cccnc2n1[C@H]1CCN(Cc2ncc[nH]2)C1 [Example 7, (S)-3-(1-((1H-Imidazol-2-yl)methyl)pyrrolidin-3-yl)-1-([1,1′-biphenyl]-4-yl)-1,3-dihydro-2H-imidazo[4,5-b]pyridin-2-one] | 15.6 µM
Cn1ccnc1CN1CC[C@H](n2c(=O)n(-c3ccccc3)c3cccnc32)C1 [Example 11, (S)-3-(1-((1-Methyl-1H-imidazol-2-yl)methyl)pyrrolidin-3-yl)-1-phenyl-1,3-dihydro-2H-imidazo[4,5-b]pyridin-2-one hydrochloride] | 85.4 µM
Cn1ccnc1CN1CCC(n2c(=O)n(-c3ccc(-c4ccccc4)cc3)c3cccnc32)CC1 [Example 12, 1-([1,1′-Biphenyl]-4-yl)-3-(1-((1-methyl-1H-imidazol-2-yl)methyl)piperidin-4-yl)-1,3-dihydro-2H-imidazo[4,5-b]pyridin-2-one] | 4.95 µM
Cn1ccnc1CN1CC(n2c(=O)n(-c3ccc(-c4ccccc4)cc3)c3cccnc32)C1 [Example 13, 1-([1,1′-Biphenyl]-4-yl)-3-(1-((1-methyl-1H-imidazol-2-yl)methyl)azetidin-3-yl)-1,3-dihydro-2H-imidazo[4,5-b]pyridin-2-one] | 0.12 µM
Cn1ccnc1CN1CC[C@H](n2c(=O)n(-c3ccc(-c4ccc(O)cc4)cc3)c3cccnc32)C1 [Example 14, (S)-1-(4′-Hydroxy-[1,1′-biphenyl]-4-yl)-3-(1-((1-methyl-1H-imidazol-2-yl)methyl)pyrrolidin-3-yl)-1,3-dihydro-2H-imidazo[4,5-b]pyridin-2-one] | 0.36 µM
COC(=O)c1ccc(-n2c(=O)n([C@H]3CCN(Cc4ncccc4C)C3)c3ncccc32)cc1 [Example 15, Methyl (S)-4-(3-(1-((3-methylpyridin-2-yl)methyl)pyrrolidin-3-yl)-2-oxo-2,3-dihydro-1H-imidazo[4,5-b]pyridin-1-yl)benzoate] | 64.5 µM
O=C(O)c1ccc(CN2CC[C@H](n3c(=O)n(-c4ccc(-c5ccccc5)cc4)c4cccnc43)C2)nc1 [Example 17, (S)-6-((3-(1-([1,1′-Biphenyl]-4-yl)-2-oxo-1,2-dihydro-3H-imidazo[4,5-b]pyridin-3-yl)pyrrolidin-1-yl)methyl)nicotinic acid] | 0.52 µM
COc1ccc(-n2c(=O)n([C@H]3CCN(Cc4cc(C(=O)O)ccn4)C3)c3ncccc32)cc1 [Example 18, (S)-2-((3-(1-(4-Methoxyphenyl)-2-oxo-1,2-dihydro-3H-imidazo[4,5-b]pyridin-3-yl)pyrrolidin-1-yl)methyl)isonicotinic acid] | 1.95 µM
O=C(O)c1ccnc(CN2CC[C@H](n3c(=O)n(-c4ccccc4)c4cccnc43)C2)c1 [Example 19, (S)-2-((3-(2-Oxo-1-phenyl-1,2-dihydro-3H-imidazo[4,5-b]pyridin-3-yl)pyrrolidin-1-yl)methyl)isonicotinic acid] | 6.34 µM
Cn1ccnc1CN1CC[C@H](n2c(=O)n(-c3ccc(-c4ccccc4)cc3)c3ccc(C(=O)O)nc32)C1 [Example 20, (S)-1-([1,1′-Biphenyl]-4-yl)-3-(1-((1-methyl-1H-imidazol-2-yl)methyl)pyrrolidin-3-yl)-2-oxo-2,3-dihydro-1H-imidazo[4,5-b]pyridine-5-carboxylic acid] | 6.71 µM
Cn1c(C(=O)O)cnc1CN1CC[C@H](n2c(=O)n(-c3ccc4ccccc4c3)c3cccnc32)C1 [Example 22, (S)-1-Methyl-2-((3-(1-(naphthalen-2-yl)-2-oxo-1,2-dihydro-3H-imidazo[4,5-b]pyridin-3-yl)pyrrolidin-1-yl)methyl)-1H-imidazole-5-carboxylic acid] | 0.3 µM

Further lines, results first:

IC50 | SMILES
8.43 µM | Cc1cccnc1CN1CC[C@H](n2c(=O)n(-c3ccc(-c4ccccc4)cc3)c3cccnc32)C1 [Example 1, (S)-1-([1,1′-Biphenyl]-4-yl)-3-(1-((3-methylpyridin-2-yl)methyl)pyrrolidin-3-yl)-1,3-dihydro-2H-imidazo[4,5-b]pyridin-2-one]
3.45 µM | O=c1n(-c2ccc(-c3ccccc3)cc2)c2cccnc2n1[C@H]1CCN(Cc2ccccn2)C1 [Example 4, (S)-1-([1,1′-Biphenyl]-4-yl)-3-(1-(pyridin-2-ylmethyl)pyrrolidin-3-yl)-1,3-dihydro-2H-imidazo[4,5-b]pyridin-2-one]
2.98 µM | O=c1n(-c2ccc(-c3ccccc3)cc2)c2cccnc2n1[C@H]1CCN(Cc2c[nH]cn2)C1 [Example 5, (S)-3-(1-((1H-Imidazol-4-yl)methyl)pyrrolidin-3-yl)-1-([1,1′-biphenyl]-4-yl)-1,3-dihydro-2H-imidazo[4,5-b]pyridin-2-one]
8.03 µM | O=c1n(-c2ccc(-c3ccccc3)cc2)c2cccnc2n1[C@H]1CCN(Cc2ccc(O)cn2)C1 [Example 9, (S)-1-([1,1′-Biphenyl]-4-yl)-3-(1-((5-hydroxypyridin-2-yl)methyl)pyrrolidin-3-yl)-1,3-dihydro-2H-imidazo[4,5-b]pyridin-2-one]
5.49 µM | O=c1n(-c2ccc(-c3ccccc3)cc2)c2cccnc2n1[C@H]1CCN(Cc2cc(O)ccn2)C1 [Example 10, (S)-1-([1,1′-Biphenyl]-4-yl)-3-(1-((4-hydroxypyridin-2-yl)methyl)pyrrolidin-3-yl)-1,3-dihydro-2H-imidazo[4,5-b]pyridin-2-one]
0.14 µM | O=C(O)c1ccnc(CN2CC[C@H](n3c(=O)n(-c4ccc(-c5ccccc5)cc4)c4cccnc43)C2)c1 [Example 16, (S)-2-((3-(1-([1,1′-Biphenyl]-4-yl)-2-oxo-1,2-dihydro-3H-imidazo[4,5-b]pyridin-3-yl)pyrrolidin-1-yl)methyl)isonicotinic acid]

same assay, conditions: read-out: inhibition rate at the compound concentration of 100 μM (numerals with *); compound concentration 100 μM

inhibition at 100 µM | SMILES
34% | Cn1cnc(CN2CC[C@H](n3c(=O)n(-c4ccc(-c5ccccc5)cc4)c4cccnc43)C2)c1 [Example 6, (S)-1-([1,1′-Biphenyl]-4-yl)-3-(1-((1-methyl-1H-imidazol-4-yl)methyl)pyrrolidin-3-yl)-1,3-dihydro-2H-imidazo[4,5-b]pyridin-2-one hydrochloride]
29% | O=c1n(-c2ccc(-c3ccccc3)cc2)c2cccnc2n1[C@H]1CCN(Cc2ncccc2O)C1 [Example 8, (S)-1-([1,1′-Biphenyl]-4-yl)-3-(1-((3-hydroxypyridin-2-yl)methyl)pyrrolidin-3-yl)-1,3-dihydro-2H-imidazo[4,5-b]pyridin-2-one]
39% | Cc1cccnc1CN1CC[C@H](n2c(=O)n(-c3ccc(C(=O)O)cc3)c3cccnc32)C1 [Example 21, (S)-4-(3-(1-((3-Methylpyridin-2-yl)methyl)pyrrolidin-3-yl)-2-oxo-2,3-dihydro-1H-imidazo[4,5-b]pyridin-1-yl)benzoic acid hydrochloride]
